One may read the solubility as the dissolved amount per volume that the medium holds.

Series [1] can be described thus: Two-stage precipitation assay simulating the conditions in mice. Format: physicochemical. The procedure:
To determine the dissolution and precipitation of both the Kolliphor solution vehicle and the SDD dispersion in citrate vehicle upon the GI passage in vitro, a two-stage precipitation assay was conducted which had been developed internally. Therefore, the Kolliphor vehicle containing MS4078 and the dispersion of the SDD in citrate vehicle were prepared according to the descriptions in Sections and , respectively.
According to McConnell et al., the volume of gastric fluid in mice is about 175 μL. […]
The setup of the two-stage precipitation experiments and an overview of the samples are depicted in Figure and Table . […] The concentration of MS4078 was determined by sampling and UHPLC analysis or the turbidity of the samples was analyzed in-line using the Cary3500 (Agilent, Santa Clara, CA, USA) (Figure D). […] As a first step, the optical density (OD) of the cFaSSIF types, Blank-DM (citrate vehicle/SGF pH 4 mixture without polymer or API) and P-DM (a solution of E PO in citrate vehicle/SGF pH 4 mixture) were measured in a range of 200–800 nm (Figure S2). […]
1 Schematic setup of the two-stage precipitation experiments. […] All samples were centrifuged (15,000 rpm (Mikro 200 R)) for 60 s, and the supernatant was diluted with ACN and analyzed via UHPLC (see Section ). […]

The nature of series [2]: Pharmacokinetic study in mice (K–V i.v./p.o., SDD-V p.o.). Format: in vivo, mice (female CD-1). Conditions: 0.5 mg/kg in K–V. As to the method:
To evaluate the in vivo performance of the MS4078 SDD formulation, pharmacokinetic studies in mice were conducted and compared to the corresponding Kolliphor solution vehicle. The API in Kolliphor vehicle (see Section ) and the SDD formulation were given in a single-dose study to female CD-1 mice (Charles River Laboratories, Sulzfeld, Germany). The animals were kept in group housing in conventional cages with elevated grids. Food and water were offered ad libitum to the animals.
The study was carried out at EMD Serono (Billerica, MA, USA). A total of 21 mice (female, CD-1) were divided into groups of 12 and 9 animals. The solution vehicle was prepared according to Section . Doses of 0.5 mg/kg of MS4078 were administered intravenously (dose volume: 5 mL/kg) to 12 animals and blood samples (retro-orbital) were sequentially drawn from 3 animals per sampling point at 0.1, 0.25, 0.5, 1, 2, 6, and 24 h after dosing. 10 mg/kg were administered orally (dose volume: 10 mL/kg) to the second group of 9 animals. After dosing, blood samples from 3 animals per sampling point were sequentially drawn at the time points described above, except for the 0.1 h sampling point. The blood cells were dissevered by centrifugation (2000 g, 5 min). Plasma samples were extracted using a protein precipitation reagent (ACN, 4:1 (V/V)). After the addition of 50 μL methanol, the concentration was determined by LC-MS/MS (generic method, based on tuning data).
Mouse PK studies of the enabling formulation were conducted at Nuvisan GmbH (Grafing, Germany). To determine oral bioavailability of MS4078/SDD, the SDD formulation (dose: 10 mg/kg MS4078) was weighed in, dispersed in a citrate vehicle (see Section ), and administered orally (gavage, dose volume: 10 mL/kg) to three female mice (Crl:CD1(ICR)). […] 50 μL of supernatant were diluted 1:1 with a solution of 0.1% formic acid in water and the concentration of MS4078 was determined by UHPLC-MS/MS (generic method, based on tuning data).
Plasma concentrations were determined for each time point sampled. […]

Series [3] can be described thus: Solubility of MS4078 in buffer and cFaSSIF types (24 h, 37°C). Format: physicochemical. Conditions: thermodynamic from solid. The procedure: The solubility of MS4078 was evaluated by weighing an excess amount of the compound into vials and adding a prewarmed buffer or cFaSSIF types (cFaSSIF1x , cFaSSIF5 x , and cFaSSIF10x ). The suspension was stirred at 37°C for 24 h at 300 rpm. Samples were withdrawn from the suspension, and centrifuged at 15000 rpm (Mikro 200 R, Hettich, Tuttlingen, Germany) and the supernatant was diluted 1:1 with ACN. The dissolved concentration was determined by ultraperformance liquid chromatography (UHPLC, see Section ). The experiments were carried out in triplicate.
UHPLC analysis of MS4078 is described in detail in a previous publication of our group. In brief, the samples were analyzed at 271 nm using a Waters Acquity H-Class series UHPLC system (Waters Corporation, Eschborn, Germany). A gradient was applied using ACN and water with 0.1% (V/V) trifluoracetic acid as mobile phases. Separation was realized by a Waters Acquity BEH C8 column (2.1 × 50 mm, 1.7 μm).

Converted amounts (≈) assume the structure as drawn. Read-outs that look alike come from different tables or passages of the source.

In the case of `Cc1cc(Nc2ncc(Cl)c(Nc3ccccc3S(=O)(=O)C(C)C)n2)c(OC(C)C)cc1C1CCN(CC(=O)NCCNc2cccc3c2C(=O)N(C2CCC(=O)NC2=O)C3=O)CC1` (centres unmarked) [MS4078], in series [1] (SDD-DM transferred to cFaSSIF10x, from the 20 min sampling point), the “Dissolved MS4078 concentration in acceptor compartment maintained until end of experiment” value was 30 µg/mL. In addition, the “Dissolved MS4078 concentration in acceptor compartment after phase separation (plateau)” value in series [1] (SDD-DM transferred to cFaSSIF20x) is around 220 µg/mL. Further, the “in vivo total clearance as % mouse liver blood flow” value in series [2] stood at 20 % mouse liver blood flow. Also, in series [2] (female, CD-1, mouse, plasma, iv, read-out: in vivo total clearance (converted)), the clearance was 20.3 mL/min/kg. Besides, the Vd in series [2] (female, CD-1, mouse, plasma, iv, read-out: volume of distribution (Vss)) is 1.05 L/kg. Further, the solubility at 24 h was around 2 µg/mL (≈ 2.19 µM) in series [3] (aqueous buffer, citrate-phosphate buffer pH 5, 37°C, read-out: Solubility); around 220 µg/mL (≈ 241 µM) in series [3] (fassgf or other biorelevant, cFaSSIF5x pH 5, 37°C, read-out: Solubility in 5x concentrated cFaSSIF); 78 µg/mL (≈ 85.3 µM) in series [3] (fassif, cFaSSIF1x pH 5, 37°C, read-out: Solubility S(cFaSSIF1x)).

The record behind these values is PMC12505254, “PROTAC Enabling Formulation In Vivo: Implications of the Polymeric Carrier Eudragit E PO” (Molecular Pharmaceutics, 2025).
